From ChEMBL document CHEMBL1201862, “PubChem BioAssay data set” (2004)
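Interpolation was linear, between the two tested concentrations surrounding the appropriate level; five concentrations were tested over 48 hours in 96-well plates. GI50 is the concentration that inhibits growth by half.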 Activity calls are given as the source filed them. Cut-off read from the data, not from the text of the source: active = GI50 up to about 1.1 µM and inactive = higher.

Key:
Assay in all cases: inhibition of tumour cell growth, NCI panel, 48 h
UACC-62 = tested on: UACC-62
M14 = tested on: M14
HOP-62 = tested on: HOP-62
CCRF-CEM = tested on: CCRF-CEM
SK-MEL-2 = tested on: SK-MEL-2
OVCAR-8 = tested on: OVCAR-8
CAKI-1 = tested on: CAKI-1
NCI-H522 = tested on: NCI-H522
MCF7 = tested on: MCF7
UO-31 = tested on: UO-31
SF-539 = tested on: SF-539
MDA-N = tested on: MDA-N
ACHN = tested on: ACHN
Malme-3M = tested on: Malme-3M
HOP-92 = tested on: HOP-92
RXF 393 = tested on: RXF 393
HCC 2998 = tested on: HCC 2998
NCI-H226 = tested on: NCI-H226
IGROV-1 = tested on: IGROV-1
SNB-75 = tested on: SNB-75

Compound	GI50 (UACC-62)	GI50 (M14)	GI50 (HOP-62)	GI50 (CCRF-CEM)	GI50 (SK-MEL-2)	GI50 (OVCAR-8)	GI50 (CAKI-1)	GI50 (NCI-H522)	GI50 (MCF7)	GI50 (UO-31)	GI50 (SF-539)	GI50 (MDA-N)	GI50 (ACHN)	GI50 (Malme-3M)	GI50 (HOP-92)	GI50 (RXF 393)	GI50 (HCC 2998)	GI50 (NCI-H226)	GI50 (IGROV-1)	GI50 (SNB-75)
CCOC(=O)Oc1ccc2c(c1)c(=O)c1c(NCCCN(CC)CC)ccc3nnn2c31	15.3 µM (inactive)	12.3 µM (inactive)	1.75 µM (inactive)	0.889 µM (active)	16.2 µM (inactive)	3.48 µM (inactive)	0.53 µM (active)	1.56 µM (inactive)	0.929 µM (active)	0.598 µM (active)	5.62 µM (inactive)	1.19 µM (inactive)	0.82 µM (active)	13.4 µM (inactive)	6.76 µM (inactive)	1.81 µM (inactive)	1.43 µM (inactive)	7.18 µM (inactive)	5.36 µM (inactive)	
Nc1nc2c(ncn2C2C=CC(COS(N)(=O)=O)C2)c(=O)[nH]1 (centres undefined)	> 100 µM (inactive)	> 100 µM (inactive)	> 100 µM (inactive)	> 100 µM (inactive)	> 100 µM (inactive)	> 100 µM (inactive)	> 100 µM (inactive)		> 100 µM (inactive)	> 100 µM (inactive)	> 100 µM (inactive)	> 100 µM (inactive)	> 100 µM (inactive)	> 100 µM (inactive)	> 100 µM (inactive)	> 100 µM (inactive)	> 100 µM (inactive)	> 100 µM (inactive)	> 100 µM (inactive)	> 100 µM (inactive)
COc1cc(C2c3cc4c(cc3OC(N3CCOCC3)C2C)OCO4)ccc1O (centres undefined)	8.05 µM (inactive)	6.34 µM (inactive)	11.7 µM (inactive)	8.67 µM (inactive)	6.24 µM (inactive)	26.9 µM (inactive)	31.2 µM (inactive)	8.15 µM (inactive)	5.98 µM (inactive)	16 µM (inactive)	11.3 µM (inactive)	1.76 µM (inactive)	21.2 µM (inactive)	10.9 µM (inactive)	2.84 µM (inactive)	11.5 µM (inactive)	14.9 µM (inactive)		16.4 µM (inactive)	7.64 µM (inactive)
CC1=C(C(=O)OCc2ccncc2)C(C2=C(C)SCCS2)C(C(=O)OCc2ccncc2)=C(C)N1	16.3 µM (inactive)	28.7 µM (inactive)	21.7 µM (inactive)	17.7 µM (inactive)		26.4 µM (inactive)	26.3 µM (inactive)	22.8 µM (inactive)	20.8 µM (inactive)	17.5 µM (inactive)	16.4 µM (inactive)	30.5 µM (inactive)	34.5 µM (inactive)		12.3 µM (inactive)	12 µM (inactive)	> 10 µM (inactive)	18.5 µM (inactive)	62.5 µM (inactive)	15.8 µM (inactive)
N=C(N)NS(=O)(=O)c1ccc(NNc2c3ccccc3nc3c(C(=O)Nc4ccc(S(=O)(=O)Nc5ncccn5)cc4)cccc23)cc1	21.2 µM (inactive)	20.4 µM (inactive)	45.3 µM (inactive)	30.8 µM (inactive)	50.4 µM (inactive)	29.4 µM (inactive)	37.8 µM (inactive)	19.3 µM (inactive)	31.5 µM (inactive)	22.4 µM (inactive)	35.4 µM (inactive)	49.7 µM (inactive)	31 µM (inactive)	22.1 µM (inactive)	67 µM (inactive)	29 µM (inactive)	50.8 µM (inactive)		18.2 µM (inactive)	> 100 µM (inactive)
